Assay results published in patent publication US20110165660A1, “ENGINEERED MICROORGANISMS WITH ENHANCED FERMENTATION ACTIVITY” (VERDEZYNE, INC., priority 2009, published 2011).
Residue numbers refer to the chain shown, from its start. Names may count otherwise.

How the values were obtained:
[1] = target: S. cerevisiae ZWF1 variant A51D (mutant 4) (Saccharomyces cerevisiae, UniProt P11412, A51D); assay: Cofactor preference of ZWF1 mutants (NAD+ vs NADP+); assay type: biochemical; conditions: initial kinetic screening, preliminary cofactor phenotype
Chain of S. cerevisiae ZWF1 variant A51D (mutant 4) (P11412 whole entry A51D): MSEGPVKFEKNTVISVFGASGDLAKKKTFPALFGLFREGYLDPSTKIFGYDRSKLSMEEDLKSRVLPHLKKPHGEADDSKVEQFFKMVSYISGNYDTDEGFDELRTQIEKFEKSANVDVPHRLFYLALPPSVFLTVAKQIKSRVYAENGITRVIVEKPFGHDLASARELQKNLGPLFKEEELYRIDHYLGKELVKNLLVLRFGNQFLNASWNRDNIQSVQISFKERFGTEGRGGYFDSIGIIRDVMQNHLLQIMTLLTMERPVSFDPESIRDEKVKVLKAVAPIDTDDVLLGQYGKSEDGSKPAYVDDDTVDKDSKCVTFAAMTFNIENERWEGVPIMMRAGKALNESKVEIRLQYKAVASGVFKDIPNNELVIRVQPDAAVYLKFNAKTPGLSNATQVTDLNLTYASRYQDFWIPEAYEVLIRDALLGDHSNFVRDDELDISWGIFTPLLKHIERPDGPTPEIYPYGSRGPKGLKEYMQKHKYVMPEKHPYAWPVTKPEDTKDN
Experimental: (§1) Strain BY4742 zwf1 (ATCC Cat. No. 4011971; Winzeler E A, et al. Science 285: 901-906, 1999. PubMed: 10436161) was used as the base strain for all ZWF1 assays. The assays were performed as follows: A 5 ml overnight of the strain expressing the ZWF1 gene was grown in SCD-ura. A 50 ml culture of the strain was then grown for about 18 hours from an initial OD600 of about 0.2 until it had reached about OD600 of about 4. The cells were centrifuged at 1046×g washed twice with 25 ml cold sterile water, and resuspended in 2 ml/g Yper Plus (Thermo Scientific) plus 1×protease inhibitors (EDTA-free). The cells were allowed to lyse at room temperature for about 30 minutes with constant rotation of the tubes. The lysate was centrifuged at 16,100×g for 10 minutes at 4° C. and the supernatants were transferred to a new 1.5 ml microcentrifuge tube. Quantification of the lysates was performed using the Coomassie-Plus kit (Thermo Scientific, San Diego, Calif.) as directed by the manufacturer.
(§2) The reaction was started with 20 mM glucose-6-phosphate and the reaction was monitored at A340. The specific activity was measured as the μmol substrate/min/mg protein.
Site-directed mutagenesis was used to alter of ZWF1 so that the altered ZWF1 could also utilize NAD+, thereby improving the REDOX balance within the cell. […]

[2] = target: S. cerevisiae ZWF1 (glucose-6-phosphate dehydrogenase) variant A51N (mutant 3) (Saccharomyces cerevisiae, UniProt P11412, A51N); assay: Cofactor usage of ZWF1 mutants (initial kinetic screening, NAD+ vs NADP+); assay type: biochemical; conditions: preliminary cofactor phenotype
Chain of S. cerevisiae ZWF1 (glucose-6-phosphate dehydrogenase) variant A51N (mutant 3) (P11412 whole entry A51N): as the sequence (P11412 whole entry A51D) above, with D51N counted along it
Experimental: as §1, §2
(§3) Site directed mutagenesis reactions were performed in the same manner for all mutations, and for mutants which include more than one mutation, each mutation was performed sequentially. About 50 ng of plasmid DNA was added to 1×Pfu Ultra II buffer, 0.3 mM dNTPs, […] site directed mutagenesis specific primers, and 1 U Pfu Ultra II polymerase (Agilent, La Jolla, Calif.) in a 50 μl reaction mix. The reaction was cycled at 95° C. for 10 minutes, followed by 15 rounds of 95° C. for 15 seconds, 55° C. for 40 seconds, and 72° C. for 3 minutes. A final 10 minute extension reaction at 72° C. was also included. The PCR reaction mixture was then digested with 30 U of Dpnl for about 2 hours and 5 μl of the digested PCR reaction mixture was used to transform competent DH5α (Zymo Research, Orange, Calif.) and plated onto LB plates containing the appropriate antibiotics. The table below lists mutants generated in a first round of mutagenesis.

[3] = target: S. cerevisiae ZWF1 (glucose-6-phosphate dehydrogenase) variant F33Y (mutant 8) (Saccharomyces cerevisiae, UniProt P11412, F33Y); assay: as above; assay type: biochemical; conditions: preliminary cofactor phenotype
Chain of S. cerevisiae ZWF1 (glucose-6-phosphate dehydrogenase) variant F33Y (mutant 8) (P11412 whole entry F33Y): as the sequence (P11412 whole entry A51D) above, with F33Y, D51A counted along it
Experimental: as §1, §2, §3

[4] = target: S. cerevisiae ZWF1 (glucose-6-phosphate dehydrogenase) variant T28F (mutant 5) (Saccharomyces cerevisiae, UniProt P11412, T28F); assay: as above; assay type: biochemical; conditions: preliminary cofactor phenotype
Chain of S. cerevisiae ZWF1 (glucose-6-phosphate dehydrogenase) variant T28F (mutant 5) (P11412 whole entry T28F): as the sequence (P11412 whole entry A51D) above, with T28F, D51A counted along it
Experimental: as §1, §2, §3

[5] = target: S. cerevisiae ZWF1 (glucose-6-phosphate dehydrogenase) variant Y40L (mutant 7) (Saccharomyces cerevisiae, UniProt P11412, Y40L); assay: as above; assay type: biochemical; conditions: preliminary cofactor phenotype
Chain of S. cerevisiae ZWF1 (glucose-6-phosphate dehydrogenase) variant Y40L (mutant 7) (P11412 whole entry Y40L): as the sequence (P11412 whole entry A51D) above, with Y40L, D51A counted along it
Experimental: as §1, §2, §3

[6] = target: S. cerevisiae ZWF1 (glucose-6-phosphate dehydrogenase) variant A24G/T28G (mutant 2) (Saccharomyces cerevisiae, UniProt P11412, A24G/T28G); assay: as above; assay type: biochemical; conditions: preliminary cofactor phenotype
Chain of S. cerevisiae ZWF1 (glucose-6-phosphate dehydrogenase) variant A24G/T28G (mutant 2) (P11412 whole entry A24G/T28G): as the sequence (P11412 whole entry A51D) above, with A24G, T28G, D51A counted along it
Experimental: as §1, §2, §3

[7] = target: S. cerevisiae ZWF1 (glucose-6-phosphate dehydrogenase) variant A24G (mutant 1) (Saccharomyces cerevisiae, UniProt P11412, A24G); assay: as above; assay type: biochemical; conditions: preliminary cofactor phenotype
Chain of S. cerevisiae ZWF1 (glucose-6-phosphate dehydrogenase) variant A24G (mutant 1) (P11412 whole entry A24G): as the sequence (P11412 whole entry A51D) above, with A24G, D51A counted along it
Experimental: as §1, §2, §3

[8] = target: S. cerevisiae ZWF1 (glucose-6-phosphate dehydrogenase) variant K46R (mutant 6) (Saccharomyces cerevisiae, UniProt P11412, K46R); assay: as above; assay type: biochemical; conditions: preliminary cofactor phenotype
Chain of S. cerevisiae ZWF1 (glucose-6-phosphate dehydrogenase) variant K46R (mutant 6) (P11412 whole entry K46R): as the sequence (P11412 whole entry A51D) above, with K46R, D51A counted along it
Experimental: as §1, §2, §3

[9] = substrate: OC1OC[C@@H](O)[C@H](O)[C@H]1O; assay: purified protein, by the assay type; assay type: biochemical, Ruminococcus flavefaciens / Piromyces; conditions: other: xylose 40-500 mM, pH 7.5, about 30° C.
Experimental: Approximately 20 μg of soluble whole cell extract from each transformed cell line was prepared using Y-PER plus reagent as described above was incubated in a solution containing about 100 mM Tris, pH 7.5, 10 mM MgCl2, 0.15 mM NADH (Sigma, St. Louis, Mo.), and 2 U sorbitol dehydrogenase (SDH) (Roche, Indianapolis, Ind.) at about 30° C. […] A Beckman DU-800 spectrophotometer was utilized with an Enzyme Mechanism software package (Beckman Coulter, Inc, Brea, Calif.), and the change in the A340 was monitored for 2-3 minutes.

[10] = substrate: OC1OC[C@@H](O)[C@H](O)[C@H]1O; assay: purified protein, by the assay type; assay type: biochemical, Ruminococcus flavefaciens / Piromyces; conditions: other: xylose 40-500 mM, pH 7.5, about 30° C.; remark: listed apart in the source
Description: To generate the chimeric XI-Rp10 gene, the 5′ primer KAS/XI-R-P6-10 and 3′ primer KAS/3-XI-RF-NATIVE were first used to add nucleotides 16-30 from the XI-P gene to the 5′ end of the XI-R gene keeping the remainder of the XI-R gene in-frame. […] Following PCR purification of the resulting XI-Rp6-10 amplified product, 5′ primer KAS/XI-R-P1-10 and either the 3′ primer KAS/3-XI-RF-NATIVE or the 3′ primer KAS/3-XI-RF-NATIVE-HIS oligonucleotides were used to add additional sequences.

[11] = substrate: OC1OC[C@@H](O)[C@H](O)[C@H]1O; assay: cells, lysate or membranes; assay type: biochemical, Ruminococcus flavefaciens; conditions: other: xylose about 40 to about 500 mM, pH 7.5, about 30° C.
Experimental: A series of specific point mutations were made to the “hot rod” Ruminococcus xylose isomerase gene using site-directed mutagenesis.
Site directed mutagenesis was performed as follows: About 50 ng of template DNA was added to 1×Pfu Ultra II buffer, 0.3 mM dNTPs, […] of the relevant mutagenesis primers depending on the mutant being constructed and 1 U Pfu Ultra 11 polymerase (Agilent, La Jolla, Calif.) in a 50 μl reaction mix. The “hot rod” Ruminococcus xylose isomerase gene was used as the template DNA for constructing single point mutation variants. Previously engineered mutants sometimes were used as “template” DNA to generate other mutants. Each reaction was PCR cycled as follows: 95° C. 10 minutes followed by 30 rounds of 95° C. for 20 seconds, 55° C. for 30 seconds, and 72° C. for 5 minutes. A final 5 minute extension reaction at 72° C. was also included. Following PCR, 1.5 μl of Dpnl (NEB, Ipswich, Mass.) was added and allowed to digest the reaction mixture for 1 to 1.5 hours at 37° C. 5 μl of this mixture was then used to transform NEB-5a cells (NEB, Ipswich, Mass.) and plated onto LB media with ampicillin (100 μg/ml). (Table below discloses SEQ ID NOS 229-256, respectively, in order of appearance)

[12] = substrate: OC1OC[C@@H](O)[C@H](O)[C@H]1O; assay: purified protein, by the assay type; assay type: biochemical, Ruminococcus flavefaciens / Piromyces; conditions: other: xylose 40-500 mM, pH 7.5, about 30° C.; remark: listed apart in the source
Description: Following PCR purification of the resulting XI-Rp6-15 amplified product, 5′ primer KAS/XI-R-P1-15 either 3′ primer KAS/3-XI-RF-NATIVE or 3′ primer KAS/3-XI-RF-NATIVE-HIS oligonucleotides were used to add additional sequences.

Q: With `NC(=O)c1ccc[n+]([C@@H]2O[C@H](COP(=O)(O)OP(=O)(O)OC[C@H]3O[C@@H](n4cnc5c(N)ncnc54)[C@H](O)[C@@H]3O)[C@@H](O)[C@H]2O)c1` [NAD+] as the molecule, how does the “NAD+ usage” value [1] read?
A: Yes

Q: And the “NAD+ usage” value [2]?
A: No

Q: And the “NAD+ usage” value [3]?
A: No

Q: And the “NAD+ usage” value [4]?
A: No

Q: What about the “NAD+ usage” value [5] of the same molecule?
A: No

Q: What about the “NAD+ usage” value [6] of the same molecule?
A: No

Q: What about the “NAD+ usage” value [7] of the same molecule?
A: No

Q: And the “NAD+ usage” value [8]?
A: No

Q: Which “NADP+ usage” value [1] does the source give for `NC(=O)c1ccc[n+]([C@@H]2O[C@H](COP(=O)(O)OP(=O)(O)OC[C@H]3O[C@@H](n4cnc5c(N)ncnc54)[C@H](OP(=O)(O)O)[C@@H]3O)[C@@H](O)[C@H]2O)c1` [NADP+] here?
A: No

Q: What about the “NADP+ usage” value [2] of the same molecule?
A: Yes

Q: And the “NADP+ usage” value [3]?
A: Yes

Q: And the “NADP+ usage” value [4]?
A: Yes

Q: What about the “NADP+ usage” value [5] of the same molecule?
A: Yes

Q: And the “NADP+ usage” value [6]?
A: No

Q: And the “NADP+ usage” value [7]?
A: Yes

Q: What about the “NADP+ usage” value [8] of the same molecule?
A: Yes

B1: Ruminococcus flavefaciens xylose isomerase chimera XI-Rp5 (first 5 amino acids of Piromyces xylose isomerase), SEQ ID NO: 56 (Ruminococcus flavefaciens; … (protein)
chain: MAKEYFSNIGKIQYQGPKSTDPLSFKYYNPEEVINGKTMREHLKFALSWWHTMGGDGTDMFGCGTTDKTWGQSDPAARAKAKVDAAFEIMDKLSIDYYCFHDRDLSPEYGSLKATNDQLDIVTDYIKEKQGDKFKCLWGTAKCFDHPRFMHGAGTSPSADVFAFSAAQIKKALESTVKLGGNGYVFWGGREGYETLLNTNMGLELDNMARLMKMAVEYGRSIGFKGDFYIEPKPKEPTKHQYDFDTATVLGFLRKYGLDKDFKMNIEANHATLAQHTFQHELRVARDNGVFGSIDANQGDVLLGWDTDQFPTNIYDTTMCMYEVIKAGGFTNGGLNFDAKARRGSFTPEDIFYSYIAGMDAFALGFRAALKLIEDGRIDKFVADRYASWNTGIGADIIAGKADFASLEKYALEKGEVTASLSSGRQEMLESIVNNVLFSL
notes: E2 XI (CAB76571.1; MAKEY) on Ruminococcus XI
Q: Which Km [9] does the source give for B1 here?
A: 66.5 mM

B2: Ruminococcus flavefaciens xylose isomerase chimera XI-Rp10 (first 10 amino acids of Piromyces xylose isomerase), SEQ ID NO: 58 (Ruminococcus flavefaciens; … (protein)
chain: MAKEYFPQIQQYQGPKSTDPLSFKYYNPEEVINGKTMREHLKFALSWWHTMGGDGTDMFGCGTTDKTWGQSDPAARAKAKVDAAFEIMDKLSIDYYCFHDRDLSPEYGSLKATNDQLDIVTDYIKEKQGDKFKCLWGTAKCFDHPRFMHGAGTSPSADVFAFSAAQIKKALESTVKLGGNGYVFWGGREGYETLLNTNMGLELDNMARLMKMAVEYGRSIGFKGDFYIEPKPKEPTKHQYDFDTATVLGFLRKYGLDKDFKMNIEANHATLAQHTFQHELRVARDNGVFGSIDANQGDVLLGWDTDQFPTNIYDTTMCMYEVIKAGGFTNGGLNFDAKARRGSFTPEDIFYSYIAGMDAFALGFRAALKLIEDGRIDKFVADRYASWNTGIGADIIAGKADFASLEKYALEKGEVTASLSSGRQEMLESIVNNVLFSL
Q: Which Km [10] does the source give for B2 here?
A: 75.8 mM

B3: Ruminococcus flavefaciens xylose isomerase (hot rod) variant G179A (Ruminococcus flavefaciens; G179A) (protein)
chain: B2 chain with A2E, K3F, E4F, Y5S, F6N, P7I, Q8G, I9K, Q10I, G179A
notes: expressed in S. cerevisiae, soluble extract
Q: Which Km [11] does the source give for B3 here?
A: 83.82 mM

B4: Ruminococcus flavefaciens xylose isomerase chimera XI-Rp15 (first 15 amino acids of Piromyces xylose isomerase), SEQ ID NO: 60 (Ruminococcus flavefaciens; … (protein)
chain: B2 chain with Q11K, Y12I, Q13K, G14F, P15E
Q: For B4, which Km [12] is on record?
A: 49.3 mM
